Values quoted from earlier work as cited in patent publication US20020094316A1, “Polypodal chelants for metallopharmaceuticals” (priority 2001, published 2002).
One block for each compound: values may come before it.

What was measured:
[1] = compared with MECAM

stability of Fe^3+ complex relative to MECAM [1]: much more stable
SMILES: O=C(N[C@H]1COC(=O)[C@@H](NC(=O)c2cccc(O)c2O)COC(=O)[C@@H](NC(=O)c2cccc(O)c2O)COC1=O)c1cccc(O)c1O [enterobactin]

SMILES: O=C([O-])CN(CCN(CC(=O)[O-])CC(=O)[O-])CCN(CC(=O)[O-])CC(=O)[O-].[Gd+3] [Gd(DTPA)^2−]
Kobs (decomposition) (acidic conditions): 1.2×10^−3 so^−1

half-life (in 0.1 M HCl): 60.2 h
SMILES: O=C([O-])CN1CCN(CC(=O)[O-])CCN(CC(=O)[O-])CCN(CC(=O)[O-])CC1.[Gd+3] [Gd(DOTA)^−]
